According to patent publication US20070025997A1, “Use of biomolecular targets in the treatment and visualization of brain tumors” (priority 2002, published 2007):
Entries after “also recorded” stand apart in the source; their conditions may differ. Blank lines part the entries; values can stand above or below the compound they belong to.

Tests used:
G140-DDR1a cells [1] = assay: Invasion assay through Matrigel-coated Fluoroblok membranes; assay type: cell-based, human; settings: 25 μM
Procedure: (§1) Migration and Invasion Assays: Migration assays were performed using 24-well fluoroblok chambers (BD Biosciences, […] pore size). Cells overexpressing DDR1a, DDR1 b, vector alone (Mock) and parental cells were trypsinized and 1×10^6 cells were suspended in DMEM plus 1% serum. 100, 000 cells were placed in the upper chambers (Becton Dickenson-Fluoroblok plates-8 μm) in triplicate. DMEM with 5% serum was added to the lower chambers. After 4 hours, cells adhering to the underside of the membrane were stained with 4 μg/ml Calcein AM (Molecular Probes, Inc.) and fluorescence emitted by cells that have migrated through the chamber to the underside of the filter was measured at λs of 530/590 nm using a CytoFlor plate reader (Series 4000, Perspective Biosystems). For Invasion Assays: Rat tail Collagen type I (BD Biosciences, 10 μg/ml), human Collagen type IV (BD Biosciences, […]), human Fibronectin (BD Biosciences, 5 μg/ml) were used to coat the underside of the chambers and Fluoroblok plates previously coated with Matrigel (BD Biosciences, 24 wells) were used. […] The cells were allowed to invade through the matrices at 37° C. for 16 hrs and stained with Calcein AM and fluorescence emitted by cells was measured at Xs of 530/590 nm using a CytoFlor plate reader (Series 4000, Perspective Biosystems). […]

G140-DDR1a cells [2] = assay: Invasion assay through Collagen type 1 coated membranes; assay type: cell-based, human; settings: 25 μM
Procedure: as §1

MMP-2 = assay: Gelatin zymography of conditioned media (MMP-2 activation); assay type: cell-based, human
Procedure: Zymography: Serum-free media from G140 cell lines were stimulated with Collagen type I (10 μg/mL and collected after 24 hr. In some experiments, GM6001 (25 μM, 50 μM) was added to the media. The media was mixed with Tris-Gycine SDS Sample buffer (2×) and 20 μg of protein was subjected to 10% SDS-polyacrylamide gel electrophoresis (Invitrogen, Inc.) using 0.1% gelatin. After electrophoresis, gels were incubated in 2.5% Triton X-100 (Renaturing Buffer, Invitrogen, Inc.) for 30 minutes twice to remove SDS, and replaced with 50 mM Tris-Hcl, pH 7.5 containing 0.15 M NaCl, 10 mM CaCl2, and 0.02% NaN3 (Developing Buffer, Invitrogen, Inc.) overnight and then stained with Coomassie Blue R-250 for 30 minutes.

glioma cells = assay: Migration assay in Fluoroblok chambers; assay type: cell-based, human; settings: glioma cells overexpressing DDR1a
Procedure: as §1

DDR1 [3] = assay: Immunoprecipitation for DDR1 phosphorylation; assay type: cell-based, human; settings: G140 parental cells; 10 μg/ml soluble
Procedure: (§2) Immunoprecipitation for DDR1 phosphorylation: Rat tail collagen type 1 was purchased from Collaborative Biomedical Products (Bedford, Mass., USA). Cells were stimulated with 10 μg/ml soluble collagen type 1 for various periods of time. Cell lysates were prepared in RIPA buffer and immunoprecipitation was performed by incubating 1000 μg of cell extracts with DDR1 (C-20) antibody overnight at 4° C. Protein A beads (Santa Cruz Biotechnology: 50 μl) were added for 1 hr; the beads were washed three times with wash buffer and aliquots of the supernatant were subjected to SDS-PAGE. The blots were probed with monoclonal anti-phosphotyrosine antibody (4G10; Upstate Biotechnology Inc.) and visualized using the enhanced chemiluminescence (ECL) system (Amersham Pharmacia Biotech, Uppsala, Sweden). The blots were stripped and reprobed with a polyclonal antibody for DDR1 (C-20). Western Blot. The blots were probed with β-actin antibody to confirm equal loading.

MMP-1, MMP-2 and MMP-9 = assay: Gelatin zymography of media of DDR1 overexpressing glioma cells (Example 1); assay type: cell-based, human; settings: 20 ug/ml; 48 hrs; serum-free medium
Procedure: DDR1 overexpressing glioma cells reveal increased prescence of MMP-9, MMP-2 and MMP-1. Cells overexpressing DDR1a and DDR1b, DDR1 ex (extracellular domain construct) and Emmprin ex (extracellular domain construct), Ht1080 cells and human Fibroblasts, cells expressing empty vector were plated onto plates. After 24 hrs of plating, media was replaced with Serum-free medium with or without 20 ug/ml Type 1 Collagen and were incubated for 48 hrs at 37° C. Media from cells was collected and concentrated. 10 ug of media from each sample was resolved on a polyacrylamide gel (10%) containing 0.1% gelatin. Following electrophoresis, gels were washed twice with 5% Triton X-100 (30 min each). After washing, the gels were incubated for 24 h at 37° C. in the presence of 50 mM Tris-HCl, 5 mM CaCl2, 5 μM ZnCl2, pH 7.5, stained with Coomassie Brilliant Blue R-250 for 30 min and then destained. MMP-1, MMP-2 and MMP-9 production was induced by native type I collagen.

DDR1 [4] = target: T1, DDR1 (Homo sapiens, UniProt Q08345); assay: DDR1 activation in Glioma cells, anti-phosphotyrosine western blot; assay type: cell-based; set-up: DDR1 is phosphorylated as a 125 kD (full length) protein; settings: 60 minutes, 10 ug/ml (EGF 20 ng/ml)
Procedure: DDR1 activation in Glioma cells. DDR1 Glioma cells were stimulated with 10 ug/ml of Type1 collagen, 10 ug/ml Vitrogen, 10 ug/ml Fibronectin and 20 ng/ml EGF for 60 minutes. After stimulation, cells were lysed in RIPA buffer and resolved a 10% polyacrylamide gel (10%) gel. Lane 1, Nonstimulates, Lane 2, Type 1 Collagen (10 ug/ml, Lane 3 stimulated with Vitrogen (10 μg/ml), Lane 4 stimulated with human Fibronectin (10 μg/ml), Lane 5 stimulated with EGF 20 ng/ml) for 60 minutes. Cell lysates were analysed by anti-phosphotyrosine (4G10, Upstate Biotechnology) panel a, anti-DDR1 (C-20, Santa Cruz Biotechnology Inc.) panel b, and anti-DDR1 N-terminal H-126 (SCBT) panel c by western blotting. […] DDR1 is proteolytically cleaved in response to ligand stimulation. A 52 kD soluble protein was detected in the media with H-126, a N-terminal anti-DDR1 antibody (panel c).
Target sequence in this assay (Q08345 19-913): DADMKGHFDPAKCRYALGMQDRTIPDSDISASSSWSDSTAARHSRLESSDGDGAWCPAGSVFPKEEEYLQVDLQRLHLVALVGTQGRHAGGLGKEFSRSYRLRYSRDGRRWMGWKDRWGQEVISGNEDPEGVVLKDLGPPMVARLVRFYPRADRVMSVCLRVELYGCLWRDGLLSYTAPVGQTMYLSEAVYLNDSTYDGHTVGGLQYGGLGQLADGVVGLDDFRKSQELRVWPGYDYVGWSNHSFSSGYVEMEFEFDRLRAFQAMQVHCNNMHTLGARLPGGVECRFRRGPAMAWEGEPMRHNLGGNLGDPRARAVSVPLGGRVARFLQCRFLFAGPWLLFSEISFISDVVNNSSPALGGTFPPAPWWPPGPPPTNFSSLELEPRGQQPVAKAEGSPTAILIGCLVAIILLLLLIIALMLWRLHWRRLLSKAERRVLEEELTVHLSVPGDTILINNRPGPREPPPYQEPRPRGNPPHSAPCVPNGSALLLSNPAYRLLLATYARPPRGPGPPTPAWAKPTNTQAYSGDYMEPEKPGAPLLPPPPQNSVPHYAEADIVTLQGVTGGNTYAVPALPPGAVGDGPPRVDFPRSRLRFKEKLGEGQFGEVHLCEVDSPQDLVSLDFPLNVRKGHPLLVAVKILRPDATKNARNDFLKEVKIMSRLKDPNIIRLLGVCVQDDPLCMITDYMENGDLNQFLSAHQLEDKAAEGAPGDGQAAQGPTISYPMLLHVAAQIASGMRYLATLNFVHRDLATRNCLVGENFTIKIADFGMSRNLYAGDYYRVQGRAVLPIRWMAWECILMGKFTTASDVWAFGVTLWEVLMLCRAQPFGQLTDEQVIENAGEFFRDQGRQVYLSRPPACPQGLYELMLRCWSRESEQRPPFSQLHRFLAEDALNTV

DDR1 [5] = target: T1, DDR1; assay: DDR1 internalization, Cellomics ArrayScan; assay type: cell-based; set-up: DDR1 is phosphorylated as a 125 kD (full length) protein; settings: human Glioma derived cells; soluble, 30 minutes
Procedure: Cells are rinsed once with HBSS and fixed with 3.7% neutral buffered formalin. The fixation solution is aspirated, and the plate washed with blocking buffer, and then incubated with permeabilization buffer for 10 minutes. The cells are then stained with fluorescence conjugated secondary antibody solution containing 10 ug/ml Hoechst 33342 (to stain nuclei) for 30 minutes at room temperature. Plates are washed twice, sealed, and stored in HBSS at 4 C. Images are acquired using the ArrayScan HCS system and internalized receptors quantitated using a proprietary algorithm. The algorithm measures the appearance and intensity of fluorescent receptor aggregates inside the cell. These measurements are represented as mean cytoplasmic intensity (amount of antibody-receptor complex inside the cell) and mean cytoplasmic texture (a measure of the endosome aggregates). Antibodies that trigger receptor internalization are further evaluated. Antibodies that bind to DDR1 on human glioma cells and become internalized are of particular interest. In some instances endocytosis serves as a surrogate marker for other therapeutic biologic effects, such as growth inhibition.
DDR1 internalization. Human Glioma derived were treated with soluble collagen I for 30 minutes and then stained for DDR1. The Cellomics ArrayScan fluorescent microscope instrument was used to identify and quantitate internalized DDR1 (FIG. 8).
Target sequence in this assay (Q08345 19-913): as above

DDR1 [6] = target: T1, DDR1; assay: Immunoprecipitation for DDR1 phosphorylation; assay type: cell-based; set-up: expressed in transfected cells; host or cells: G140 glioma cells stably transduced with a pLEN retroviral vector carrying DDR1a or DDR1b; settings: 10 μg/ml soluble
Procedure: as §2

Compound: CNC(=O)[C@H](Cc1c[nH]c2ccccc12)NC(=O)[C@@H](CC(=O)NO)CC(C)C [GM6001]
DDR1a mediated invasion through matrigel (G140-DDR1a cells [1]): prevented
DDR1a mediated invasion through matrigel (G140-DDR1a cells [1]; listed as GM60001): inhibited
DDR1a mediated invasion through collagen type 1 (G140-DDR1a cells [2]): prevented
DDR1a mediated invasion through collagen type 1 (G140-DDR1a cells [2]; listed as GM60001): inhibited
DDR1a stimulated activation / enzymatic activity of MMP-2 (MMP-2; 25 μm, G140-DDR1a cells, collagen 1 stimulation): effectively inhibited; also recorded: prevented
migration of glioma cells (glioma cells): prevented

DDR1 internalization (mean cytoplasmic intensity, cytoplasmic texture) (DDR1 [5]): induces DDR1 to appear in the cytoplasm
time of maximal DDR1a phosphorylation (DDR1 [6]; G140-DDR1a cells): 60 min
time of peak phosphorylation of G140-DDR1b (DDR1 [6]; G140-DDR1b cells): 90 min
Compound: Collagen type 1: Rat tail collagen type 1, DDR1 ligand used to stimulate cells
conversion of intermediate (64 kDa) to active form of MMP-2 (62 kDa) (MMP-2; 10 μg/ml, G140-DDR1a overexpressing cells): increased conversion
MMP-2 activation (MMP-2; 10 μg/ml, G140 parental, G140-DDR1b and G140 mock cells): did not increase
time of peak autophosphorylation of endogenous DDR1 (DDR1 [3]): 60 min
MMP-1, MMP-2 and MMP-9 production (MMP-1, MMP-2 and MMP-9): induced
activation of pro-MMP-2 and Pro-MMP-1 (MMP-1, MMP-2 and MMP-9): Increased activation
tyrosine phosphorylation of DDR1 (DDR1 [4]; listed as Type 1 Collagen): phosphorylated; also recorded: resulted in tyrosine phosphorylation of DDR1

Compound: EGF: EGF 20 ng/ml, used to stimulate DDR1 Glioma cells
tyrosine phosphorylation of DDR1 (DDR1 [4]): phosphorylated; also recorded: resulted in tyrosine phosphorylation of DDR1

Compound: Fibronectin: human Fibronectin, used to stimulate DDR1 Glioma cells
tyrosine phosphorylation of DDR1 (DDR1 [4]): phosphorylated; also recorded: resulted in tyrosine phosphorylation of DDR1
